# Test results: patent US9464106B2, “Oligonucleotides useful for detecting and analyzing nucleic acids of interest” (Exiqon A/S, priority 2002, dated 2016)
# Marks after values point to notes of the source that are not given here. l = locked nucleic acid (LNA); [5mC] = 5-methylcytosine; d = 2'-deoxy (DNA)
# Test system: complementary single stranded DNA (3′-ctgNatcc)
# Assay: Melting temperatures of DNA and LNA 8-mers containing inosine, 2,6-diaminopurine or 2-aminopurine against complementary DNA
# Assay type: binding
# Conditions: duplex 2.5 μM; 0.1M NaCl; 10 mM Na-phosphate (pH 7.0); 1 mM EDTA
Substance,Tm of the duplex with 3′-ctgaatcc,Tm of the duplex with 3′-ctgcatcc [°C],Tm of the duplex with 3′-ctggatcc,Tm of the duplex with 3′-ctgtatcc [°C]
5′-GACATAGG [Entry 8],38.2 °C,40.6,43.4 °C,61.6
5′-GACDTAGG [Entry 11],42.2 °C,52.4,41.4 °C,67.8
5′-GACGTAGG [Entry 10],32^b ° C.,70.9,41^b ° C.,55.0
5′-GACITAGG [Entry 13],48.2 °C,59.9,43.0 °C,53.1
5′-GACTTAGG [Entry 9],60.7 °C,23.5,36.4 °C,28.0
5′-GDCDTDGG [Entry 12],55.9 °C,63.8,54.7 °C,78.3
"5′-gacatagg [Entry 1, reference compound]",<10 °C,<10,<10 °C,23.8
"5′-gacdtagg [Entry 4, reference compound]",<10 °C,<10,<10 °C,23.3
"5′-gacgtagg [Entry 3, reference compound]",<10 °C,25.0,<10 °C,<10
"5′-gacitagg [Entry 6, reference compound]",<10 °C,20.9,<10 °C,<10
"5′-gacttagg [Entry 2, reference compound]",22.6 °C,<10,<10 °C,<10

# Same assay, conditions: entries 1 and 4
row,Substance,destabilization of the duplex on analogous replacement in a DNA octamer [°C]
1,"5′-gacdtagg [Entry 4, reference compound]",0.5

# Test system: yeast HSP78 (YDR258C) sequence
# Assay: Duplex melting temperatures of HSP78 25-mer capture probes (UV spectrophotometer)
# Conditions: 25-mer capture probe duplex with complementary target; design PM = perfectly matched, MM = single mismatch; DNA, LNA_T (T) or LNA_TC (TC) substituted
row,Substance,Average duplex melting temp. [°C]
1,"12800 (DNA ACCATCATCACCCAACCTTGTGTCG; sugars from the 5' end dlddlddldddllddddlddlddld, [5mC] at 2, 12, 13, 24, backbone not given here; further chemistry not fully specified) [compound 12800]",74.2
2,"12802 (DNA TGGCCTAGGGAATCGGTCAGCTTAC; sugars from the 5' end lddldlddddddllddldddldldd, [5mC] at 4, 14, 21, backbone not given here; further chemistry not fully specified) [compound 12802]",83.6
3,"12803 (DNA TTGGAAACATCGGGGTGCGCTTTTT; sugars from the 5' end lldddddlddlddddldldddldld, [5mC] at 8, 11, 18, backbone not given here; further chemistry not fully specified) [compound 12803]",80.8
4,"12804 (DNA GAAACATCGGGGTGCGCTTTTTCAA; sugars from the 5' end ddddldllddddldldddddldldd, [5mC] at 5, 8, 15, 23, backbone not given here; further chemistry not fully specified) [compound 12804]",83.2
5,"12805 (DNA GACAGCCTCAGTTAATTGGCCACCA; sugars from the 5' end ddlddldlddddlddlldddlddld, [5mC] at 3, 6, 21, 24, backbone not given here; further chemistry not fully specified) [compound 12805]",82.5
6,"12806 (DNA CCGATTAAACGAGAGACAGTATGCT; sugars from the 5' end llddlldddlddddddlddldldld, all C 5-methyl, backbone not given here; further chemistry not fully specified) [compound 12806]",79.4
7,"12807 (DNA ATCAAATAGGAATTCAGCTAAAGCC; sugars from the 5' end dlldddldddddldlddllddddld, [5mC] at 3, 15, 18, 24, backbone not given here; further chemistry not fully specified) [compound 12807]",71.4
8,"12808 (DNA GACCTAAGAACATAAAGCTGGCAAT; sugars from the 5' end ddllldddddldlddddllddlddd, all C 5-methyl, backbone not given here; further chemistry not fully specified) [compound 12808]",78.9
9,"12809 (DNA AAATAGCAGCAATGGCCTCGTCTTG; sugars from the 5' end dddlddlddlddlddldlldlddld, [5mC] at 7, 10, 16, 19, backbone not given here; further chemistry not fully specified) [compound 12809]",86.8
10,"12810 (DNA ATAGCAGCAATGGCCTCGTCTTGGC; sugars from the 5' end dlddldddddlddldldddldlddd, [5mC] at 5, 14, 20, backbone not given here; further chemistry not fully specified) [compound 12810]",83
11,"12811 (DNA GCAATGGCCTCGTCTTGGCCAACGA; sugars from the 5' end d10 l1 d1 l2 d11, [5mC] at 11, 14, backbone not given here; further chemistry not fully specified) [compound 12811]",79.3
12,"12812 (DNA GATGAACTCAGGTGGATAGGATCTT; sugars from the 5' end ddldddllldddldddlddddllld, all C 5-methyl, backbone not given here; further chemistry not fully specified) [compound 12812]",77.3
13,"12813 (DNA TCAGTTAGCCAATCCTTCGCTTCAT; sugars from the 5' end llddlddddlddldldlldlddldd, [5mC] at 2, 10, 15, 18, 20, 23, backbone not given here; further chemistry not fully specified) [compound 12813]",81.8
14,"12814 (DNA GTTGCCATGGAGTTCAAAATCTGTC; sugars from the 5' end dlddlldlddddldlddddllddld, [5mC] at 5, 6, 15, 21, backbone not given here; further chemistry not fully specified) [compound 12814]",78.3
15,"12815 (DNA AGACGTACAGCATCAGAAATAGCAG; DNA at AG, LNA at CT, all C 5-methyl, backbone not given here; further chemistry not fully specified) [compound 12815]",81.9
16,"12816 (DNA TTTGGTAGCACGACAAGCTTAGTAT; sugars from the 5' end ldlddlddldlddldddldlddldd, all C 5-methyl, backbone not given here; further chemistry not fully specified) [compound 12816]",79
17,"12817 (DNA ATAAAGCTGGCAATAGGTCTCTTTT; sugars from the 5' end dlddddllddlddldddllldllld, [5mC] at 7, 11, 19, backbone not given here; further chemistry not fully specified) [compound 12817]",81.2
18,"12818 (DNA TTTTTCGGCCAAACGATCTTGAATT; sugars from the 5' end ldldllddlldddldddldldddld, all C 5-methyl, backbone not given here; further chemistry not fully specified) [compound 12818]",77.8
19,"12819 (DNA CACTCTAACAGTTTCGCCGTTTCTA; sugars from the 5' end ldldldddldddldddlddldllld, [5mC] at 1, 3, 5, 9, 17, 23, backbone not given here; further chemistry not fully specified) [compound 12819]",81.9
20,"12820 (DNA TCAATGGCCTTGCACCATATAATTG; sugars from the 5' end llddlddldlldlddldldlddlld, [5mC] at 2, 8, 13, 16, backbone not given here; further chemistry not fully specified) [compound 12820]",83.5
21,"12821 (DNA AAAACGACAGCATAAGGCTTTCTTC; sugars from the 5' end ddddlddlddldlddddlldlldld, [5mC] at 5, 8, 11, 18, 22, backbone not given here; further chemistry not fully specified) [compound 12821]",79
22,"12822 (DNA ATTGACCTCAAAACTTTCTTGGATA; sugars from the 5' end dllddllllddddllldllldddld, all C 5-methyl, backbone not given here; further chemistry not fully specified) [compound 12822]",75.6
23,"12823 (DNA CCCAACTTTGTGTCGTTTAATAAAA; sugars from the 5' end llldddllddldlddlllddldddd, [5mC] at 1, 2, 3, backbone not given here; further chemistry not fully specified) [compound 12823]",74.8
